Here are results for 19 molecules from patent US6946465B2, “Immunosuppressive effects of pteridine derivatives” (4 AZA Bioscience NV, priority 1999, dated 2005).

Common to all, as to type: cell-based, human
Test [1] concerns peripheral blood mononuclear cells (PBMC) with allogeneic PBMC or RPMI1788 stimulator cells. As to the kind of experiment: Mixed lymphocyte reaction (MLR) test, [3H]-thymidine incorporation. The conditions noted are these: Table 1; 5 days incubation + 16 h thymidine. The text has this:
(§1) Various models may be used for testing an immunosuppressive effect. In vivo, for example, different transplantation models are available. They are strongly influenced by different immunogenicities, depending on the donor and recipient species used and depending on the nature of the transplanted organ. The survival time of transplanted organs can thus be used to measure the suppression of the immune response. In vitro, the most used models are lymphocyte activation tests. Usually activation is measured via lymphocyte proliferation. Inhibition of proliferation thus always means immunosuppression under the experimental conditions applied. There exist different stimuli for lymphocyte activation: • a) co-culture of lymphocytes of […] (mixed lymphocyte reaction, hereinafter referred as MLR) in a so-called mixed lymphocyte culture test: lymphocytes expressing different minor and major antigens of the HLA-DR type (=alloantigens) activate each other non-specifically. • b) a CD3 assay here there is an activation of the T-lymphocytes via an exogenously added antibody (OKT3).
(§2) All reagents were dissolved in 0.5 ml dimethylsulfoxide (hereinafter referred as DMSO) and further diluted in culture medium before use for the following in vitro experiments. The commercially available culture medium consisted of RPMI-1640+10% foetal calf serum (FCS).
Peripheral blood mononuclear cells (hereinafter referred as PBMC) were isolated from heparinized peripheral blood by density gradient centrifugation over Lymphoprep (Nycomed, Maorstua, Norway). Allogeneic PBMC or Eppstein-Barr Virus-transformed human B cells [commercially available under the trade name RPM11788 (ATCC name CCL156)] which strongly express B7-1 and B7-2 antigens were used as stimulator cells after irradiation with 30 Gy. MLR was performed in triplicate wells. After 5 days incubation at 37° C., 1 μCi [^3 H]-thymidine was added to each cup. After a further 16 hours incubation, cells were harvested and counted in a β-counter. Inhibition of proliferation by a compound (drug) described in some of the previous examples was counted using the formula: [formula] wherein cpm is the thymidine count per minute. Assays for CD3 and CD 28

The subject of test [2] is highly purified T cells stimulated by immobilized anti-CD3 mAb. As to the kind of experiment: CD3 assay: T-cell proliferation stimulated by anti-CD3 mAb + PMA (BrdU). The conditions noted are these: Table 1; anti-CD3 mAb + PMA 0.5 ng/ml, 48 h; read-out: CD 3 IC50.
From the text: as §1, §2
(§3) T cells were purified by removing non-T cells. Briefly, monocytes were removed by cold agglutination. The resulting lymphoid cells were further purified by a cell enrichment immunocolumn [Cellect Human T commercially available from Biotex, Edmonton, Alberta, Canada)] by a process of negative selection.
(§4) Highly purified T cells (10^6/ml) were stimulated by immobilized anti-CD3 or anti-CD28 monoclonal antibodies (hereinafter referred as mAb) in the presence of PMA. Anti-CD3 mAb (available from CLB, Amsterdam, Netherlands) were fixed on the 96-microwell plates by incubating the wells with 50 μl of mAb solution (1/800 dilution in culture medium). For anti-CD28 mAb (available from CLB, Amsterdam, Netherlands) 50 μl (1/650 dilution in culture medium) was added directly to the wells. Further, a 20 μl phorbol myristate acetate (hereinafter referred as PMA (commercially available from Sigma, St. Louis, Mo., USA) solution (final concentration: 0.5 ng/ml) was added. Subsequently, 20 μl of a compound described in some of the previous examples were added by serial dilution in triplicate wells. Finally 100 μl of the T-cell suspension (10^6/ml) was added. After 48-hour incubation at 37° C. in 5% CO2 20 μl of a bromo-deuridine (hereinafter referred as BrdU) 100 μM solution (commercially available as Cell Proliferation Elisa from Boehringer-Mannheim Belgium) was added to each well. After a further overnight incubation, T-cell proliferation was measured using a colorimetric immunoassay for qualification of cell proliferation based on the incorporation of BrdU during DNA synthesis. Optical density (hereinafter referred as OD) was measured by a Behring EL311 plate reader at 450 nm (reference wavelength: 690 nm). Inhibition of proliferation by a compound (drug) described in some of the previous examples was counted using the formula: [formula]

Test [3] deals with highly purified T cells stimulated by anti-CD28 mAb. In words: CD28 assay: T-cell proliferation stimulated by anti-CD28 mAb + PMA (BrdU). The conditions noted are these: Table 1; anti-CD28 mAb + PMA 0.5 ng/ml, 48 h.
From the text: as §1, §2, §3, §4

For the molecule `Cn1c(=O)c2ncc(/C=C/c3ccncc3)nc2n(C)c1=O` [Example 22, 1,3-dimethyl-7-[(E)-2-(pyrid-4-yl)vinyl]lumazine], the IC50 was found to be 75 µM in test [1], 125 µM in test [2] and 100 µM in test [3].

Take `Cn1c(=O)c2nc(C3OCCO3)c(Cl)nc2n(C)c1=O` [Example 49, 6-(1,3-dioxolanyl)-7-chloro-1,3-dimethyl-lumazine]: the IC50 in test [1] turned out to be 11 µM; in test [2], 2.2 µM; in test [3], 3.6 µM.

On to `Cn1c(=O)c2nc(C(Cl)Cl)c(SCc3ccccc3)nc2n(C)c1=O` [Example 71, 6-dichloromethyl-7-mercaptobenzyl-1,3-dimethyl-lumazine], for which the half-inhibitory concentration (IC50) in test [1] is 56 µM; in test [2], above 20 µM; in test [3], above 20 µM.

On to `CCOC(=O)c1nc2c(=O)n(C)c(=O)n(C)c2nc1NCC(C)(C)C` [Example 61, 6-ethylcarboxylate-7-neopentylamino-1,3-dimethyl-lumazine], for which the figures for the IC50 in test [1], in test [2] and in test [3] were 16 µM, 80 µM and 16 µM, respectively.

As for `Cn1c(=O)c2ncc(/C=C/C=Cc3ccccc3)nc2n(C)c1=O` [Example 23, 1,3-dimethyl-7-[(E)-4-(phenyl)butadienyl]-lumazine], the IC50 in test [1] is 30 µM; in test [2], 110 µM; in test [3] it was 80 µM.

Regarding `Cn1c(=O)c2nc(C#N)c(SCc3ccccc3)nc2n(C)c1=O` [Example 59, 6-cyano-7-mercaptobenzyl-1,3-dimethyl-lumazine], the IC50 in test [1] is above 200 µM; in test [2], 18.5 µM; in test [3], 16 µM.

On to `Cn1c(=O)c2nc(C=Cc3ccccc3)cnc2n(C)c1=O` [Example 79, 6-[2-phenylethenyl]-1,3-dimethyllumazine], for which the IC50 in test [1] was 17 µM; in test [2], 104 µM; in test [3], above 200 µM.

`Cn1c(=O)c2nc(-c3ccccc3)c(S)nc2n(C)c1=O` [Example 32, 1,3-dimethyl-6-phenyl-7-mercaptolumazine]: the concentration for half-maximal inhibition (IC50) in test [1], in test [2] and in test [3] was 25 µM in each case.

For `Cn1c(=O)c2nc(C=O)c(N3CCSCC3)nc2n(C)c1=O` [Example 69, 6-formyl-7-thiomorpholino-1,3-dimethyl-lumazine], the IC50 in test [1] is 116 µM; in test [2] it was 80 µM; in test [3], 116 µM.

Consider `Cn1c(=O)c2nc(-c3ccccc3)c(Cl)nc2n(C)c1=O` [Example 34, 7-chloro-1,3-dimethyl-6-phenyllumazine], for which the IC50 in test [1] came to 3.75 µM; in test [2], 0.08 µM; in test [3] it was 0.07 µM.

Consider `Cn1c(=O)c2nc(C#N)c(-n3ccnc3)nc2n(C)c1=O` [Example 57, 6-cyano-7-imidazolyl-1,3-dimethyl-lumazine], for which the results for the IC50 in test [1], in test [2] and in test [3] were 48 µM, 16.8 µM and 15 µM, respectively.

On to `CCOC(=O)c1nc2c(=O)n(C)c(=O)n(C)c2nc1N1CCCCC1` [Example 63, 6-ethylcarboxylate-7-piperidinyl-1,3-dimethyl-lumazine], for which the values for the IC50 in test [1], in test [2] and in test [3] were 104 µM, 128 µM and 80 µM, respectively.

Consider `Cn1c(=O)[nH]c(=O)c2nc(-c3ccccc3)c(-c3ccccc3)nc21` [Example 41, 1-methyl-6,7-diphenyllumazine], for which the IC50 in test [1] was 35 µM; in test [2], 25 µM; in test [3], 25 µM.

With `Cn1c(=O)c2nc(C#N)c(Cl)nc2n(C)c1=O` [Example 47, 6-cyano-7-chloro-1,3-dimethyl-lumazine], the IC50 was 104 µM in test [1], 15 µM in test [2] and 12 µM in test [3].

As to `Cn1c(=O)c2nc(C=Cc3ccc(C(F)(F)F)cc3)cnc2n(C)c1=O` [Example 78, 6-[2-(p-trifluoromethylphenyl)ethenyl]-1,3-dimethyllumazine], the half-maximal inhibitory concentration (IC50) was 17 µM in test [1], above 200 µM in test [2] and 164 µM in test [3].

On to `Cc1nc2c(=O)n(C)c(=O)n(C)c2nc1C=Cc1ccccc1` [Example 76, 7-(2-phenylethenyl)-1,3,6-trimethyl-lumazine], for which the concentration for half-maximal inhibition (IC50) came to 120 µM in test [1], 68 µM in test [2] and 116 µM in test [3].

Take `CCCCNc1nc2c(nc1C(=O)OCC)c(=O)n(C)c(=O)n2C` [Example 60, 6-ethylcarboxylate-7-n-butylamino-1,3-dimethyl-lumazine]: the IC50 in test [1] is 13 µM; in test [2], 56 µM; in test [3], 92 µM.

Regarding `CC(C)Sc1nc2c(nc1C#N)c(=O)n(C)c(=O)n2C` [Example 58, 6-cyano-7-mercaptoisopropyl-1,3-dimethyl-lumazine], the IC50 was 116 µM in test [1], 104 µM in test [2] and 116 µM in test [3].

Turning to `CCSC(C[N+](=O)[O-])c1cnc2c(n1)c(=O)n(C)c(=O)n2C` (stereo not drawn) [Example 19, 6-[(1-ethylthio-2-nitro)ethyl]-1,3-dimethyl-lumazine], the results for the IC50 in test [1], in test [2] and in test [3] were 4.5 µM, 0.35 µM and 0.09 µM, respectively.

As a reminder, the IC50 is the concentration at which inhibition is half-maximal.
